Experimental data reported in US20060069132A1, “Azolecarboxamide herbicides” (priority 2004, published 2006).

Legend:
Assay in all cases: Test E pre-/postemergence herbicide test
hairy beggarticks = type: in vivo, Bidens radiata; settings: Preemergence
Excerpt: Seeds of plant species selected from bipinnate beggarticks (Bidens bipinnata L.), hairy beggarticks (Bidens radiata Thuill.), bermudagrass (Cynodon dactylon (L.) Pers.), Surinam grass (Urochloa decumbens (Staph) R. D. Webster, previously named Brachiaria decumbens Stapf), large crabgrass (Digitaria sanguinalis (L.) Scop.), green foxtail (Setaria viridis (L.) P. Beauv.), goosegrass (Eleusine indica (L.) Gaertn.), johnsongrass (Sorghum halepense (L.) Pers.), kochia (Kochia scoparia (L.) Schrad.), pitted morningglory (Ipomoea lacunosa L.), purple nutsedge (Cyperus rotundus L.), common ragweed (Ambrosia elatior L.), mustard (Brassica nigra (L.) W. D. J. Koch), guineagrass (Panicum maximum Jacq.), dallisgrass (Paspalum dilatatum Poir.), barnyardgrass (Echinochloa crus-galli (L). P. Beauv.), southern sandbur (Cenchrus echinatus L.), common sowthistle (Sonchus oleraceous L.), prickly sida (Sida spinosa L.), Italian ryegrass (Lolium multiflorum Lam.), common purslane (Portulaca oleracea L.), broadleaf signalgrass (Brachiaria platyphylla (Griseb.) Nash), common groundsel (Senecio vulgaris L.), common chickweed (Stellaria media (L.) Vill/Cyr.), tropical spiderwort (Commelina benghalensis L.), annual bluegrass (Poa annua L.), downy bromegrass (Bromus tectorum L.), itchgrass (Rottboellia cochinchinensis (L.) L.f.), quackgrass (Elytrigia repens (L.) Nevski), Canada horseweed (Erigeron Canadensis L.), field bindweed (Convolvulus arvensis L.), spotted spurge (Euphorbia maculata L.), common mallow (Malva sylvestris (=s silvestris) L.), and Russian thistle (Salsola kali L. ssp. Ruthenica (Iljin) Soo) were planted and treated preemergence with test chemicals formulated in a non-phytotoxic solvent mixture which included a surfactant.
At the same time, plants selected from these weed species were treated with postemergence applications of some of the test chemicals formulated in the same manner. Plants ranged in height from 2 to 18 cm (1- to 4-leaf stage) for postemergence treatments. Treated plants and controls were maintained in a greenhouse for 12 to 14 days, after which time all species were compared to controls and visually evaluated. Plant response ratings, summarized in Table E, are based on a scale of 0 to 100 where 0 is no effect and 100 is complete control. A dash (-) response means no test result.

barnyardgrass = type: in vivo, Echinochloa crus-galli
Outline: (§1)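 Seeds were planted and treated preemergence with test chemicals in a non-phytotoxic solvent mixture containing surfactant; plants at 2 to 18 cm (1- to 4-leaf stage) received postemergence applications of the same formulation. After 12 to 14 days in a greenhouse, injury was visually rated against untreated controls on a 0 to 100 scale.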

tropical spiderwort = type: in vivo, Commelina benghalensis
Outline: as §1

downy bromegrass = type: in vivo, Bromus tectorum
Outline: as §1

itchgrass = type: in vivo, Rottboellia cochinchinensis
Outline: as §1

quackgrass = type: in vivo, Elytrigia repens
Outline: as §1

field bindweed = type: in vivo, Convolvulus arvensis
Outline: as §1

Russian thistle = type: in vivo, Salsola kali
Outline: as §1

common purslane = type: in vivo, Portulaca oleracea; settings: scale 0 to 100
Outline: as §1

common groundsel = type: in vivo, Senecio vulgaris; settings: scale 0 to 100
Outline: as §1

[1] = 250 g ai/ha, scale 0 (no effect) to 100 (complete control)
[2] = 375 g ai/ha, scale 0 (no effect) to 100 (complete control)
[3] = 500 g ai/ha, scale 0 (no effect) to 100 (complete control)
[4] = Preemergence, 125 g ai/ha, scale 0 to 100
[5] = Preemergence, 250 g ai/ha, scale 0 (no effect) to 100 (complete control)
[6] = Preemergence, 375 g ai/ha, scale 0 (no effect) to 100 (complete control)
[7] = Preemergence, 500 g ai/ha, scale 0 (no effect) to 100 (complete control)
[8] = Postemergence, 500 g ai/ha, scale 0 to 100
[9] = Postemergence, 250 g ai/ha, scale 0 to 100
[10] = postemergence, 125 g ai/ha, scale 0 to 100
[11] = postemergence, 62 g ai/ha, scale 0 to 100

Question: `CCc1nn(C(C)(C)C)cc1C(=O)Nc1cc(C(=O)N(C)C)ccn1` [Compound 293] was tested. Which “Plant response rating, Beggarticks, Hairy” value (hairy beggarticks; 125 g ai/ha, scale 0 to 100) did it give?
Answer: Its value is 100.

Question: What about the “Plant response rating, Beggarticks, Hairy” value (hairy beggarticks; [1]) of the same compound?
Answer: Its value is 100.

Question: And the “Plant response rating, Beggarticks, Hairy” value (hairy beggarticks; [2])?
Answer: The value was 100.

Question: What about the “Plant response rating, Beggarticks, Hairy” value (hairy beggarticks; [3]) of the same compound?
Answer: The value was 100.

Question: What about the “Plant response rating, Barnyardgrass” value (barnyardgrass; [4]) of the same compound?
Answer: Its value is 60.

Question: And the “Plant response rating, Barnyardgrass” value (barnyardgrass; [5])?
Answer: Its value is 100.

Question: What about the “Plant response rating, Barnyardgrass” value (barnyardgrass; [6]) of the same compound?
Answer: Its value is 100.

Question: And the “Plant response rating, Barnyardgrass” value (barnyardgrass; [7])?
Answer: Its value is 100.

Question: And the “Plant response rating, Spiderwort” value (tropical spiderwort; [4])?
Answer: The value was 60.

Question: What about the “Plant response rating, Spiderwort” value (tropical spiderwort; [5]) of the same compound?
Answer: Its value is 80.

Question: And the “Plant response rating, Spiderwort” value (tropical spiderwort; [6])?
Answer: The value was 80.

Question: And the “Plant response rating, Spiderwort” value (tropical spiderwort; [7])?
Answer: Its value is 90.

Question: What about the “Plant response rating, Bromegrass, Downy” value (downy bromegrass; [5]) of the same compound?
Answer: The value was 80.

Question: What about the “Plant response rating, Bromegrass, Downy” value (downy bromegrass; [7]) of the same compound?
Answer: Its value is 80.

Question: And the “Plant response rating, Itchgrass” value (itchgrass; [4])?
Answer: The value was 10.

Question: And the “Plant response rating, Itchgrass” value (itchgrass; [5])?
Answer: Its value is 90.

Question: And the “Plant response rating, Itchgrass” value (itchgrass; [6])?
Answer: The value was 100.

Question: And the “Plant response rating, Itchgrass” value (itchgrass; [7])?
Answer: Its value is 100.

Question: And the “Plant response rating, Quackgrass” value (quackgrass; [4])?
Answer: Its value is 70.

Question: What about the “Plant response rating, Quackgrass” value (quackgrass; [5]) of the same compound?
Answer: Its value is 80.

Question: And the “Plant response rating, Quackgrass” value (quackgrass; [6])?
Answer: Its value is 95.

Question: And the “Plant response rating, Quackgrass” value (quackgrass; [7])?
Answer: Its value is 95.

Question: What about the “Plant response rating, Bindweed, Field” value (field bindweed; [4]) of the same compound?
Answer: Its value is 40.

Question: What about the “Plant response rating, Bindweed, Field” value (field bindweed; [5]) of the same compound?
Answer: Its value is 60.

Question: What about the “Plant response rating, Bindweed, Field” value (field bindweed; [6]) of the same compound?
Answer: The value was 95.

Question: And the “Plant response rating, Bindweed, Field” value (field bindweed; [7])?
Answer: Its value is 95.

Question: And the “Plant response rating, Thistle” value (Russian thistle; [4])?
Answer: Its value is 60.

Question: What about the “Plant response rating, Thistle” value (Russian thistle; [6]) of the same compound?
Answer: The value was 95.

Question: What about the “Plant response rating, Thistle” value (Russian thistle; [7]) of the same compound?
Answer: Its value is 100.

Question: What does the source list for `CCn1nc(C(C)(C)C)cc1C(=O)Nc1cc(C(=S)N(C)C)ccc1F` [Compound 294]?
Answer: Plant response rating, Beggarticks, Hairy (hairy beggarticks; 125 g ai/ha, scale 0 to 100): 100; Plant response rating, Beggarticks, Hairy (hairy beggarticks; [1]): 100; Plant response rating, Beggarticks, Hairy (hairy beggarticks; [2]): 100; Plant response rating, Beggarticks, Hairy (hairy beggarticks; [3]): 100; Plant response rating, Barnyardgrass (barnyardgrass; [8]): 80; Plant response rating, Barnyardgrass (barnyardgrass; [9]): 75; Plant response rating, Barnyardgrass (barnyardgrass; [4]): 95; Plant response rating, Barnyardgrass (barnyardgrass; [5]): 95; Plant response rating, Barnyardgrass (barnyardgrass; [6]): 100; Plant response rating, Barnyardgrass (barnyardgrass; [7]): 100; Plant response rating, Barnyardgrass (barnyardgrass; [10]): 60; Plant response rating, Barnyardgrass (barnyardgrass; [11]): 40; Plant response rating, Purslane (common purslane; Postemergence, 500 g ai/ha): 90; Plant response rating, Purslane (common purslane; Postemergence, 250 g ai/ha): 90; Plant response rating, Purslane (common purslane; postemergence, 125 g ai/ha): 60; Plant response rating, Purslane (common purslane; postemergence, 62 g ai/ha): 10; Plant response rating, Groundsel (common groundsel; Postemergence, 250 g ai/ha): 90; Plant response rating, Groundsel (common groundsel; postemergence, 62 g ai/ha): 50; Plant response rating, Spiderwort (tropical spiderwort; [8]): 90; Plant response rating, Spiderwort (tropical spiderwort; [9]): 70; Plant response rating, Spiderwort (tropical spiderwort; [5]): 85; Plant response rating, Spiderwort (tropical spiderwort; [6]): 90; Plant response rating, Spiderwort (tropical spiderwort; [7]): 95; Plant response rating, Spiderwort (tropical spiderwort; [10]): 30; Plant response rating, Spiderwort (tropical spiderwort; [11]): 20; Plant response rating, Bromegrass, Downy (downy bromegrass; [8]): 95; Plant response rating, Bromegrass, Downy (downy bromegrass; [9]): 85; Plant response rating, Bromegrass, Downy (downy bromegrass; [4]): 80; Plant response rating, Bromegrass, Downy (downy bromegrass; [5]): 100; Plant response rating, Bromegrass, Downy (downy bromegrass; [6]): 100; Plant response rating, Bromegrass, Downy (downy bromegrass; [7]): 100; Plant response rating, Bromegrass, Downy (downy bromegrass; [10]): 75; Plant response rating, Bromegrass, Downy (downy bromegrass; [11]): 60; Plant response rating, Itchgrass (itchgrass; [8]): 80; Plant response rating, Itchgrass (itchgrass; [9]): 75; Plant response rating, Itchgrass (itchgrass; [5]): 75; Plant response rating, Itchgrass (itchgrass; [6]): 95; Plant response rating, Itchgrass (itchgrass; [7]): 100; Plant response rating, Itchgrass (itchgrass; [10]): 70; Plant response rating, Itchgrass (itchgrass; [11]): 50; Plant response rating, Quackgrass (quackgrass; [8]): 85; Plant response rating, Quackgrass (quackgrass; [9]): 85; Plant response rating, Quackgrass (quackgrass; [4]): 80; Plant response rating, Quackgrass (quackgrass; [5]): 80; Plant response rating, Quackgrass (quackgrass; [6]): 95; Plant response rating, Quackgrass (quackgrass; [7]): 95; Plant response rating, Quackgrass (quackgrass; [10]): 80; Plant response rating, Quackgrass (quackgrass; [11]): 60; Plant response rating, Bindweed, Field (field bindweed; [8]): 70; Plant response rating, Bindweed, Field (field bindweed; [9]): 50; Plant response rating, Bindweed, Field (field bindweed; [4]): 10; Plant response rating, Bindweed, Field (field bindweed; [5]): 90; Plant response rating, Bindweed, Field (field bindweed; [6]): 95; Plant response rating, Bindweed, Field (field bindweed; [7]): 100; Plant response rating, Bindweed, Field (field bindweed; [10]): 50; Plant response rating, Bindweed, Field (field bindweed; [11]): 10; Plant response rating, Thistle (Russian thistle; [8]): 80; Plant response rating, Thistle (Russian thistle; [9]): 80; Plant response rating, Thistle (Russian thistle; [4]): 50; Plant response rating, Thistle (Russian thistle; [6]): 100; Plant response rating, Thistle (Russian thistle; [7]): 100
